ChEMBL document CHEMBL1152560, “Substituted 2-arylbenzothiazoles as kinase inhibitors: hit-to-lead optimization” (Bioorg Med Chem, 2009)

Experiments:
[1] = biological target: Casein kinase I isoform delta (Homo sapiens) (UniProt P48730); assay: Residual activity of CK1delta at 1 uM by microplate scintillation counting
[2] = biological target: Protein kinase C eta type (Homo sapiens) (UniProt P24723); assay: Residual activity of PKCeta at 1 uM by microplate scintillation counting
[3] = biological target: Receptor-type tyrosine-protein kinase FLT3 (Homo sapiens) (UniProt P36888); assay: Residual activity of wild type FLT3 at 0.1 uM by microplate scintillation counting
[4] = biological target: Insulin receptor (Homo sapiens) (UniProt P06213); assay: Residual activity of INSR at 0.1 uM by microplate scintillation counting
[5] = tested on: Mast/stem cell growth factor receptor Kit (Homo sapiens), P10721 [T670I]; assay: Residual activity of KIT T670I mutant at 0.1 uM by microplate scintillation counting
[6] = biological target: Insulin receptor (Homo sapiens) (UniProt P06213); assay: Residual activity of INSR at 1 uM by microplate scintillation counting
[7] = biological target: T1, Megakaryocyte-associated tyrosine-protein kinase (Homo sapiens) (UniProt P42679); assay: Residual activity of MATK at 1 uM by microplate scintillation counting
T1 sequence (whole entry): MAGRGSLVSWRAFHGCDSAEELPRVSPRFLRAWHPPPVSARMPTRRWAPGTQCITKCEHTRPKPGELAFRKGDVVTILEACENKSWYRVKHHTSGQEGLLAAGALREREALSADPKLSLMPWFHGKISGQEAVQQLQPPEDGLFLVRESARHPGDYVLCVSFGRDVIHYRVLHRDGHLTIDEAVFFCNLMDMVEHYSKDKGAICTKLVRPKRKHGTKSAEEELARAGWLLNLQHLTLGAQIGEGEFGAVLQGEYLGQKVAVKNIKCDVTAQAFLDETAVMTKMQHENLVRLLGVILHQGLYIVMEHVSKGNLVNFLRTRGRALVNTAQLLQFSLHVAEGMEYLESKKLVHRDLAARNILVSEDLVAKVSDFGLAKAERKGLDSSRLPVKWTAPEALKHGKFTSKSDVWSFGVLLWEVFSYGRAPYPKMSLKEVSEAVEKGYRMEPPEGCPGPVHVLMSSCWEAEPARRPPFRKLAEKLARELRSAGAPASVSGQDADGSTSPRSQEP

[8] = biological target: T2, NUAK family SNF1-like kinase 2 (Homo sapiens) (UniProt Q9H093); assay: Residual activity of SNARK at 1 uM by microplate scintillation counting
T2 sequence (whole entry): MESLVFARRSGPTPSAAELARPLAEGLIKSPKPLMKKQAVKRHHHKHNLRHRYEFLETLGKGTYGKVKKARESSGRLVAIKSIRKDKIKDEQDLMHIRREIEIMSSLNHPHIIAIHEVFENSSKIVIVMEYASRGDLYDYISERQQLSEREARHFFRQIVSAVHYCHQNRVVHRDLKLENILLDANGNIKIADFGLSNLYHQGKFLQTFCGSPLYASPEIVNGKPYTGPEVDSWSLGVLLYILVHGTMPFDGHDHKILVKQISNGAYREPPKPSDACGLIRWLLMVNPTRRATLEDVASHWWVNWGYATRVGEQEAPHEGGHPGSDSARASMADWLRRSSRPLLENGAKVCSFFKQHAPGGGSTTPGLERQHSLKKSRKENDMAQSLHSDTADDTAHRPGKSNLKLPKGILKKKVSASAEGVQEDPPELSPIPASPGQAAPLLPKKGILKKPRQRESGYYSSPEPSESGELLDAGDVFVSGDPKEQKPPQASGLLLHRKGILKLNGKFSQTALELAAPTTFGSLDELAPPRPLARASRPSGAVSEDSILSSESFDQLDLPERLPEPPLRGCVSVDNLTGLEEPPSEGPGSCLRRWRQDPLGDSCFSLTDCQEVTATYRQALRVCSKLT

[9] = biological target: Dual specificity tyrosine-phosphorylation-regulated kinase 1A (Homo sapiens) (UniProt Q13627); assay: Residual activity of DYRK1A at 10 uM by microplate scintillation counting
[10] = biological target: Mitogen-activated protein kinase 1 (Homo sapiens) (UniProt P28482); assay: Residual activity of ERK2 at 10 uM by microplate scintillation counting
[11] = biological target: CDC42BPA protein (Homo sapiens) (UniProt B9EGA7); assay: Residual activity of CDC42BPA at 10 uM by microplate scintillation counting
[12] = biological target: CDK6/cyclin D1 (Homo sapiens) (UniProt P24385+Q00534); assay: Residual activity of CDK6/Cyclin D1 at 10 uM by microplate scintillation counting; type: protein-complex assay
[13] = biological target: T3, Phosphorylase b kinase gamma catalytic chain, liver/testis isoform (Homo sapiens) (UniProt P15735); assay: Residual activity of PHKG2 at 10 uM by microplate scintillation counting
T3 sequence (whole entry): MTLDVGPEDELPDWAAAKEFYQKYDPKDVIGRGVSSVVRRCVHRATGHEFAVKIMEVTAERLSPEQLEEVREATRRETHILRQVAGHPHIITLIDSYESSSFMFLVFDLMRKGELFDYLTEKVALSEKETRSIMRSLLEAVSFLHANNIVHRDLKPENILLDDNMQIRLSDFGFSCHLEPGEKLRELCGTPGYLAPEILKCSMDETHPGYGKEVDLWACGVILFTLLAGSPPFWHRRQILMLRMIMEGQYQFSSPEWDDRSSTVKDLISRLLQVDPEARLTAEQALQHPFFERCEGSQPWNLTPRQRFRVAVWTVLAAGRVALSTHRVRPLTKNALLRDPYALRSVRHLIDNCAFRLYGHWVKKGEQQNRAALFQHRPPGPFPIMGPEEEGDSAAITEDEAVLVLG

[14] = tested on: Serine/threonine-protein kinase B-raf (Homo sapiens), P15056 [V600E]; assay: Residual activity of B-RAF V600E mutant at 0.1 uM by microplate scintillation counting
[15] = biological target: Proto-oncogene tyrosine-protein kinase receptor Ret (Homo sapiens) (UniProt P07949); assay: Residual activity of RET at 10 uM by microplate scintillation counting
[16] = biological target: T4, Angiopoietin-1 receptor (Homo sapiens, UniProt Q02763); assay: Residual activity of TIE2 at 0.1 uM by microplate scintillation counting
[17] = biological target: Epidermal growth factor receptor (Homo sapiens, UniProt P00533); assay: Inhibition of wild type EGF-R by microplate scintillation counting
[18] = biological target: T4, Angiopoietin-1 receptor; assay: Residual activity of TIE2 at 10 uM by microplate scintillation counting
[19] = biological target: 3-phosphoinositide-dependent protein kinase 1 (Homo sapiens) (UniProt O15530); assay: Residual activity of PDK1 at 0.1 uM by microplate scintillation counting
3-phosphoinositide-dependent protein kinase 1 (Homo sapiens), sequence (O15530 whole entry, looked up): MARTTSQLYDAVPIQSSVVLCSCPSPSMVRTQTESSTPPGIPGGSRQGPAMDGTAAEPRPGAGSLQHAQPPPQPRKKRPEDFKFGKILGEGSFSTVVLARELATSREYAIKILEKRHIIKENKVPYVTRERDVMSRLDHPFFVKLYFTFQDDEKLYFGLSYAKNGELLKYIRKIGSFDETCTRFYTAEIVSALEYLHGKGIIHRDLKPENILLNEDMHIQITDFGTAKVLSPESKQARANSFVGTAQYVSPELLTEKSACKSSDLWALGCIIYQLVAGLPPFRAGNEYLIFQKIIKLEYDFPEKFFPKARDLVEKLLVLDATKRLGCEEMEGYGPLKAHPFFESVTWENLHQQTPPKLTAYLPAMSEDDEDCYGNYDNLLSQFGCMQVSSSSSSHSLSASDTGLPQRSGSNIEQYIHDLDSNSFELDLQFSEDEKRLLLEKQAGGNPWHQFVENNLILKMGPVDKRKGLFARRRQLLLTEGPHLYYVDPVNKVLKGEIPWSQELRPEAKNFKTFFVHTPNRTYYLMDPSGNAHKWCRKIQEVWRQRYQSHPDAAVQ

Casein kinase I isoform delta (Homo sapiens), sequence (P48730 whole entry, looked up, canonical isoform): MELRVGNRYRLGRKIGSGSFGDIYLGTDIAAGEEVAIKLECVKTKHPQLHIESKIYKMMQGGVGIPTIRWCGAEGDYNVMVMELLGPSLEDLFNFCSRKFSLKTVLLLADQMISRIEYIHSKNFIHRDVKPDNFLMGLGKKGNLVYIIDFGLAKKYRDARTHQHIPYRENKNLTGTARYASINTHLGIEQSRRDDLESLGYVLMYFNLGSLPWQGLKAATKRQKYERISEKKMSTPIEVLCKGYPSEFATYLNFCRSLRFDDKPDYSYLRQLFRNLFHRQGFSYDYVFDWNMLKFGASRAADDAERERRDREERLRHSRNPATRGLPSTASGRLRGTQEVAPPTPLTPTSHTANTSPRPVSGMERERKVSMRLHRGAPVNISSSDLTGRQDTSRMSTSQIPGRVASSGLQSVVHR
Mitogen-activated protein kinase 1 (Homo sapiens), sequence (P28482 whole entry): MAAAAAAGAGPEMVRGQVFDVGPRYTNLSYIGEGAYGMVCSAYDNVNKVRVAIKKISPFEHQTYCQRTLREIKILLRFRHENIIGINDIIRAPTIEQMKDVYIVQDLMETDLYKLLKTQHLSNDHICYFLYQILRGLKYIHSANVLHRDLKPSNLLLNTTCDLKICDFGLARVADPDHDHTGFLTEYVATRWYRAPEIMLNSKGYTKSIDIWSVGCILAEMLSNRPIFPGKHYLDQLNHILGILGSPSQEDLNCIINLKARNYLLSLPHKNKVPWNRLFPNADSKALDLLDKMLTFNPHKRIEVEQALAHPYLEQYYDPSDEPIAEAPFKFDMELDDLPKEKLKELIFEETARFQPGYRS
Receptor-type tyrosine-protein kinase FLT3 (Homo sapiens), sequence (P36888 whole entry): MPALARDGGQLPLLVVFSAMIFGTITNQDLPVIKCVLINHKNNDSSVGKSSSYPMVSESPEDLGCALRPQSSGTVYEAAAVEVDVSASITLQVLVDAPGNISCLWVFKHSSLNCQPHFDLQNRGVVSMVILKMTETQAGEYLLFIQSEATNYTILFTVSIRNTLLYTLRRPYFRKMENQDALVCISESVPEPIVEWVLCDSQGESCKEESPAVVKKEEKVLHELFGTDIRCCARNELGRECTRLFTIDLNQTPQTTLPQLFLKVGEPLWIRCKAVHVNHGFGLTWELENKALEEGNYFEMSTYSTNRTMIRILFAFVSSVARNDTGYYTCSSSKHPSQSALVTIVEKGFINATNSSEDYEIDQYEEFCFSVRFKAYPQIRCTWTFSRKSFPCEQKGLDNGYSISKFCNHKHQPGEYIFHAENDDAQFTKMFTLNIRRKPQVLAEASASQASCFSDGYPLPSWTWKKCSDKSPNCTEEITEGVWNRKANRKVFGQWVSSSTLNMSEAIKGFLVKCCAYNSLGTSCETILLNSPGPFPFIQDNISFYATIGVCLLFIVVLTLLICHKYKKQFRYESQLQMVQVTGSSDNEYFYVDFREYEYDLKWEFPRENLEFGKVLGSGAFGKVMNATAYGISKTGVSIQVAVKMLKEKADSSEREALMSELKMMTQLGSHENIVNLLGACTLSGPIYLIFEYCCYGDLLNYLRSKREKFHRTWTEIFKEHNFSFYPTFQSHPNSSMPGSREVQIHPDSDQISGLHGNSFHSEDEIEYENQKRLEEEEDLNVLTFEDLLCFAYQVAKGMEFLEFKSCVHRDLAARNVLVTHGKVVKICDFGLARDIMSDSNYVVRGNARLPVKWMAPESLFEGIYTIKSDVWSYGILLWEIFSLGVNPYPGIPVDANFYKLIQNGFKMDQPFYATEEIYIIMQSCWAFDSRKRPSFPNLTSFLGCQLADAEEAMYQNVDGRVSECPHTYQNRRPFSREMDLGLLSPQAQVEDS
T4 sequence (Q02763 whole entry): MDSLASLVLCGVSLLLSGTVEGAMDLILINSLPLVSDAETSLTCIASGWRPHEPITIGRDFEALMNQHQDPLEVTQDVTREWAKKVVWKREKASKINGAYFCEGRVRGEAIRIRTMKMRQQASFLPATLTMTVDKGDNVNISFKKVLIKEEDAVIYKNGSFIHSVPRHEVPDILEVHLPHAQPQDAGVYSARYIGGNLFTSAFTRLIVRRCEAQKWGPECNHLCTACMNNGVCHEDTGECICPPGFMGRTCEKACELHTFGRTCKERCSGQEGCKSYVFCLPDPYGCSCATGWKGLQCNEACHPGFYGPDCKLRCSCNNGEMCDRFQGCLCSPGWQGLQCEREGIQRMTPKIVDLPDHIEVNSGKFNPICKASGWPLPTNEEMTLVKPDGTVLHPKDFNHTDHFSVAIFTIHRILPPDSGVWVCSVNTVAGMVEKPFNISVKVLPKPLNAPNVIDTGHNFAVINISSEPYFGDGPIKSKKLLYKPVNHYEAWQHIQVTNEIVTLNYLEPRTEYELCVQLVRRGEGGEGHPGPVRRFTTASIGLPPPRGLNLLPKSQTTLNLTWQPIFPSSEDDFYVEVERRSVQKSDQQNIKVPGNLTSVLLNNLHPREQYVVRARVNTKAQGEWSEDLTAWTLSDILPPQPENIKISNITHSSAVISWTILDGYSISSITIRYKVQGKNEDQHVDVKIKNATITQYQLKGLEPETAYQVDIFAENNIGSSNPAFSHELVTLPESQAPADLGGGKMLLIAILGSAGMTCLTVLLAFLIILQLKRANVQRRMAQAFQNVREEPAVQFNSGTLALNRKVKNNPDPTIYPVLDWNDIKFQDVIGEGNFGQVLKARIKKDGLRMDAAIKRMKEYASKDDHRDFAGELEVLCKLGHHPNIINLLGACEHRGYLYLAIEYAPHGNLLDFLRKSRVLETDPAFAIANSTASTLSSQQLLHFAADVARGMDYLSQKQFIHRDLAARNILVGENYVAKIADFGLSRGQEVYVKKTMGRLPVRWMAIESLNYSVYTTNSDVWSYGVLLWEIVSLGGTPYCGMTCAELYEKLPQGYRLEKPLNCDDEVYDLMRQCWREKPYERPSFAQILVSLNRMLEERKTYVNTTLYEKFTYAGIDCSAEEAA
Protein kinase C eta type (Homo sapiens), sequence (P24723 whole entry): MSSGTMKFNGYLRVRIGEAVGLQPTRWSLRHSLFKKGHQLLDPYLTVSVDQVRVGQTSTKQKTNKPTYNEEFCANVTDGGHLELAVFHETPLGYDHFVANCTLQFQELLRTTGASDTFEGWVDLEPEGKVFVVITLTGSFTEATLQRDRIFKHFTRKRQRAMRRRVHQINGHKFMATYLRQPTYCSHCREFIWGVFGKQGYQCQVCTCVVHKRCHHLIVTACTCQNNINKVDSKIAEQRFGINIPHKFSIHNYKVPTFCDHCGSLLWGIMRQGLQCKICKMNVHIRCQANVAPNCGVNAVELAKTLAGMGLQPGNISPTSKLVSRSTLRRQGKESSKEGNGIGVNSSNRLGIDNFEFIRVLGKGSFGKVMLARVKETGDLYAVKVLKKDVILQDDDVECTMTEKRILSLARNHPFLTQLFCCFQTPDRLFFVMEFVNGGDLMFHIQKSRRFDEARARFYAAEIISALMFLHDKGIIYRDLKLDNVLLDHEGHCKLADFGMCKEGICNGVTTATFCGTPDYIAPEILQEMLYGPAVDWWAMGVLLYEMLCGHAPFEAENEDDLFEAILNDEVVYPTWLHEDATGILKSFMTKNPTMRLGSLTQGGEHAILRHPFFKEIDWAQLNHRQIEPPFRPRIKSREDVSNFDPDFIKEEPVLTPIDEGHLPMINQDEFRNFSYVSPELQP
Serine/threonine-protein kinase B-raf (Homo sapiens), P15056 [V600E], sequence (P15056 whole entry V600E): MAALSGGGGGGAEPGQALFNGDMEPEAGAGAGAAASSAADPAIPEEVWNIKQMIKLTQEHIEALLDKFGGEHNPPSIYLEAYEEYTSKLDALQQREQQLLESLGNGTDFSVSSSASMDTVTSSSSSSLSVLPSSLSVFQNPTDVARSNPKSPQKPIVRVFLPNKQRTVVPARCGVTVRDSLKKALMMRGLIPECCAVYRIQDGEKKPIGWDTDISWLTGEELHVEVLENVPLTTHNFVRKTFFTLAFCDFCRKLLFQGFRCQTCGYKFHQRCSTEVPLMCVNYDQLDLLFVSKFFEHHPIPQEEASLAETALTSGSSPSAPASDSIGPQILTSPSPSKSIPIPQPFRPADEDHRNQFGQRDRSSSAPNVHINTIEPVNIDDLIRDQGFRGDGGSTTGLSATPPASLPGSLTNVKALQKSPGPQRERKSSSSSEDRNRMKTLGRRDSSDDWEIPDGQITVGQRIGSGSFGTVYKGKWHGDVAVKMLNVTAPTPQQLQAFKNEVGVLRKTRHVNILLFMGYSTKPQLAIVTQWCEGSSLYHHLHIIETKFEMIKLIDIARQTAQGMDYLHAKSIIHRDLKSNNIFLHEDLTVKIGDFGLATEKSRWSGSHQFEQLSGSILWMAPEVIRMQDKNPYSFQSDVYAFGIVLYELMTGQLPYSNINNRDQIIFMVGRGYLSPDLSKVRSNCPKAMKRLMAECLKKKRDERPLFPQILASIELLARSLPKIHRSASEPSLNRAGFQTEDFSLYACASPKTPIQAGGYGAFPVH

| SMILES | residual activity [1] [%] | residual activity [2] [%] | residual activity [3] [%] | residual activity [4] [%] | residual activity [5] [%] | residual activity [6] [%] | residual activity [7] [%] | residual activity [8] [%] | residual activity [9] [%] | residual activity [10] [%] | residual activity [11] [%] | residual activity [12] [%] | residual activity [13] [%] | residual activity [14] [%] | residual activity [15] [%] | residual activity [16] [%] | IC50 [17] [µM] | residual activity [18] [%] | residual activity [19] [%] |
| --- | --- | --- | --- | --- | --- | --- | --- | --- | --- | --- | --- | --- | --- | --- | --- | --- | --- | --- | --- |
| COc1cc2c(Oc3ccc(-c4nc5ccccc5s4)cc3)ncnc2cc1OCCCN1CCN(C)CC1 | 96 | 92 | 112 | 100 | 103 | 98 | 141 | 87 | 103 | 161 | 61 | 193 | 103 | 91 | 13 | 38 | > 10 | 3 | 95 |
| COc1cc2c(Oc3ccc(-c4nc5ccccc5s4)cc3)ncnc2cc1OCCCN1CCCC1 | 100 | 122 | 95 | 96 | 113 | 95 | 235 | 88 | 89 | 144 | 79 | 140 | 93 | 92 | 21 | 50 | > 10 | 4 | 95 |
| COc1cc2c(Oc3ccc(-c4nc5ccccc5s4)cc3F)ncnc2cc1OCCCN1CCN(C)CC1 | 102 | 97 | 130 | 96 | 97 | 97 | 162 | 91 | 101 | 163 | 51 | 167 | 88 | 96 | 5 | 53 | > 10 | 4 | 97 |
